Assay results published in US8481459B2, “Chemical inhibitors of ethylene biosynthesis” (Academia Sinica, priority 2010, dated 2013).

Test system: gene expression in etiolated eto1-4 seedlings
Experiment: Transcriptional profiling (ATH1 GeneChip microarray) of etiolated eto1-4 seedlings
Assay type: in vivo, Arabidopsis thaliana
Procedure: For chemical treatments, seeds were sown on 0.5×MS agar medium supplemented with 10 μM chemicals (AVG, compounds 9393, 9370, and 7303) or DMSO (as control). Arabidopsis seeds were stratified in the dark at 4° C. for 4 days, then germinated in the dark for 3 days at 22° C. Approximately 2,000 etiolated seedlings of the wild type or eto1-4 were used to collect tissues for preparation of total RNA in each microarray experiment with Arabidopsis ATH1 GeneChip (Affymetrix). Extraction of RNA followed an established protocol (Chang, et al. (1993) Plant Mol. Biol. Rep. 11, 113-117). Total RNA (10 μg) was used to prepare biotinylated cRNA for hybridization to ATH1 GeneChip in the experiments disclosed herein. Experiments were repeated by 2 independent biological duplicates, and candidate genes present in both experiments were selected for further analysis. The MASS method was used for data analysis and normalization by all sample medium. Candidate genes were selected by the following criteria. First, genes with 1.5-fold differential expression between the wild type and eto1-4 were selected as the master gene pool, which was then used for comparison in treatments with AVG and individual exemplary compounds. Data were presented in hierarchical clustering and Venn diagram format. Agilent GeneSpring GX and Bioconductor software were used to analyze the expression profile data. Gene Ontology descriptions were generated by GeneSpring GX and further referred to the TAR GO database. Raw data are available in the GEO database (http://www.ncbi.nlm.nih.gov/geo) with Accession no. GSE20897.
The filtered and normalized expression data set from 22810 probes on the ATH1 Genechip was used for hierarchical clustering of gene expression profiles for comparison between AVG and the exemplary invention compounds in eto1-4. It was identified that 1,446 genes show at least 1.5-fold difference in expression between the WT and eto1-4 and used them as the master gene pool for clustering analysis (FIG. 7A). […] These genes likely contribute to the etiolated phenotype of eto1-4 by responding to elevated endogenous ethylene. To determine whether the exemplary compounds have specific r overlapping functions with AVG to suppress the eto1-4 phenotype, genes that are regulated by individual exemplary invention compounds and AVG for Venn diagram analysis were clustered (FIG. 7B). More than 63% of genes (356/561 for compound 9393; 389/561 for compound 9370; 399/561 for compound 7303; FIG. 7B) with expression associated with AVG were co-regulated by the exemplary invention compounds, which indicates an overlap function in suppression of the ethylene phenotype in eto1-4. […] Next genes co-regulated by all of the exemplary invention compounds and AVG were examined by performing a clustering analysis using the co-regulated genes identified in FIG. 7B: 356 (compound 9393 vs AVG), 389 (compound 9370 vs AVG) and 399 genes (compound 7303 vs AVG). It was uncovered that 276 genes were co-regulated by all of the exemplary invention compounds and AVG (FIG. 7C and Table 2). On the basis of GO descriptions generated by Gene Spring GX and TAIR database, the 276 genes were divided into subgroups related to their biological functions (Table 2). […] In addition, stress- and pathogenesis-related genes were among the co-regulated genes, possibly because ethylene is involved in both biotic and abiotic stresses.
Genes (1446 non-redundant loci) were selected by 1.5-fold differential expression between eto1-4 and WT as the master pool for analysis. These genes were used for comparison between chemical treatments by AVG and the exemplary invention compounds. The finalized 276 genes that are co-regulated by AVG and all of the exemplary invention compounds are shown. Locus ID also present in Nemhauser et al. (Nemhauser, et al. (2006) Cell 126, 467-475).

[1] = of 1446 genes differentially expressed between WT and eto1-4, 10 μM
[2] = ratio eto1-4 treated to eto1-4 (no treatment)

SMILES: Cc1ccc(C2CC(=O)c3cnc(NC4CCCC4)nc3C2)cc1 (stereo not shown) [Compound 9370]
- number of genes co-regulated with AVG (of 561 genes associated with AVG, 10 μM): 389 genes
- number of genes regulated (expression reverted close to WT) [1]: 728 genes
- percentage of genes regulated (expression reverted close to WT) [1]: 50.3%
- number of genes regulated specifically, not related to AVG treatment (of all genes regulated by the compound (629, 728, 650), 10 μM): 339 genes
- Signal Fold Change AT1G03457, unknown biological function [2]: 2.50
- Signal Fold Change AT1G03660, unknown biological function [2]: 2.61
- Signal Fold Change AT1G05010 ACC oxidase [2]: 0.28
- Signal Fold Change AT1G05760 jacalin lectin protein [2]: 3.58
- Signal Fold Change AT1G06720 expressed protein [2]: 1.28
- Signal Fold Change AT1G07280, unknown biological function [2]: 0.51
- Signal Fold Change AT1G07560 leucine-rich repeat protein kinase [2]: 2.24
- Signal Fold Change AT1G08650 phosphoenolpyruvate carboxylase kinase [2]: 2.03
- Signal Fold Change AT1G08990 glycogenin glucosyltransferase [2]: 2.25
- Signal Fold Change AT1G09530 phytochrome interacting factor 3 [2]: 0.28
- Signal Fold Change AT1G10760 starch excess protein (SEX1) [2]: 0.33
- Signal Fold Change AT1G13430, response to cytokinin stimulus, sulfotransferase protein [2]: 0.28
- Signal Fold Change AT1G14540 anionic peroxidase [2]: 0.53
- Signal Fold Change AT1G15380 lactoylglutathione lyase [2]: 2.66
- Signal Fold Change AT1G17970, unknown biological function [2]: 2.50
- Signal Fold Change AT1G18880 proton-dependent oligopeptide transport (POT) protein [2]: 1.93
- Signal Fold Change AT1G20190, cell wall organization and biogenesis, expansin (EXP11) [2]: 0.31
- Signal Fold Change AT1G22740 Ras-related protein (RAB7) [2]: 2.62
- Signal Fold Change AT1G23060, unknown biological function [2]: 0.36
- Signal Fold Change AT1G26930, unknown biological function [2]: 0.47
- Signal Fold Change AT1G27380 p21-rho-binding domain-containing protein [2]: 1.96
- Signal Fold Change AT1G29520, unknown biological function [2]: 1.93
- Signal Fold Change AT1G30750, unknown biological function [2]: 2.58
- Signal Fold Change AT1G31710 copper amine oxidase [2]: 4.67
- Signal Fold Change AT1G32410 vacuolar protein sorting 55 protein [2]: 2.06
- Signal Fold Change AT1G32560 late embryogenesis abundant group 1 domain-containing protein [2]: 1.59
- Signal Fold Change AT1G33470, unknown biological function [2]: 2.21
- Signal Fold Change AT1G33790, unknown biological function [2]: 0.18
- Signal Fold Change AT1G34040, unknown biological function [2]: 2.08
- Signal Fold Change AT1G35350, unknown biological function [2]: 4.97
- Signal Fold Change AT1G35612, unknown biological function [2]: 3.56
- Signal Fold Change AT1G42470, unknown biological function [2]: 4.28
- Signal Fold Change AT1G44800, unknown biological function [2]: 1.93
- Signal Fold Change AT1G44830 AP2-containing transcription factor [2]: 0.34
- Signal Fold Change AT1G48480 leucine-rich repeat trans-membrane protein kinase [2]: 2.68
- Signal Fold Change AT1G49660 expressed protein [2]: 0.34
- Signal Fold Change AT1G50560 cytochrome P450 [2]: 2.32
- Signal Fold Change AT1G52830 auxin-responsive protein [2]: 5.14
- Signal Fold Change AT1G56010 transcription activator NAC1 [2]: 2.65
- Signal Fold Change AT1G56020, unknown biological function [2]: 0.50
- Signal Fold Change AT1G58070, unknown biological function [2]: 2.32
- Signal Fold Change AT1G59590, unknown biological function [2]: 3.53
- Signal Fold Change AT1G59740 proton-dependent oligopeptide transport (POT) protein [2]: 0.39
- Signal Fold Change AT1G62290 aspartyl protease protein [2]: 0.27
- Signal Fold Change AT1G62510 lipid transfer protein [2]: 2.17
- Signal Fold Change AT1G62620, unknown biological function [2]: 2.47
- Signal Fold Change AT1G64200 V-ATPase E subunit [2]: 2.41
- Signal Fold Change AT1G65510, unknown biological function [2]: 2.74
- Signal Fold Change AT1G65920, unknown biological function [2]: 0.31
- Signal Fold Change AT1G66230 myb transcription factor (MYB20) [2]: 2.70
- Signal Fold Change AT1G67030 zinc finger (C2H2 type) protein [2]: 7.63
- Signal Fold Change AT1G68230, unknown biological function [2]: 2.55
- Signal Fold Change AT1G68520 zinc finger (B-box type) protein [2]: 2.74
- Signal Fold Change AT1G69570 Dof-type zinc finger-containing protein [2]: 3.22
- Signal Fold Change AT1G70210 cyclin delta-1 [2]: 3.28
- Signal Fold Change AT1G70850 Bet v I allergen protein [2]: 9.49
- Signal Fold Change AT1G70890 major latex protein [2]: 5.19
- Signal Fold Change AT1G71030 myb transcription factor (MYB2) [2]: 5.41
- Signal Fold Change AT1G71740, unknown biological function [2]: 2.84
- Signal Fold Change AT1G72230 plastocyanin like protein [2]: 3.09
- Signal Fold Change AT1G73220 sugar transporter protein [2]: 3.97
- Signal Fold Change AT1G73300 serine carboxypeptidase S10 protein [2]: 2.36
- Signal Fold Change AT1G73310 serine carboxypeptidase S10 protein [2]: 2.66
- Signal Fold Change AT1G73330 protease inhibitor [2]: 4.31
- Signal Fold Change AT1G73590 auxin efflux carrier protein [2]: 2.08
- Signal Fold Change AT1G73640, small GTPase mediated signal transduction, Ras-related GTP-binding protein [2]: 2.10
